Broadly, the IC50 is the concentration that inhibits the measured activity by half.

Positions of bridges follow the written chain, without caps; N, C: chain ends. Non-standard residues stand in square brackets, D forms with d. Residues, ends and D or L forms follow the SMILES beside them. ξ: configuration not given here. Phe(4-COOH) = N[C@@H](Cc1ccc(C(=O)O)cc1)C(=O)O; Bip = N[C@@H](Cc1ccc(-c2ccccc2)cc1)C(=O)O; NMeF = CN[C@@H](Cc1ccccc1)C(=O)O; ξR = N=C(N)NCCCC(N)C(=O)O; NMeA = CN[C@@H](C)C(=O)O; Nle = CCCC[C@H](N)C(=O)O; Sar = CNCC(=O)O

The target of this test is T1, human PD-1 (Jurkat-PD-1 cells) / PE-labeled human PD-L1-Ig (Homo sapiens, UniProt Q15116).
T1 construct: expressed in transfected cells; host or cells: Jurkat cell line over-expressing human PD-1
T1 sequence (Q15116 25-288): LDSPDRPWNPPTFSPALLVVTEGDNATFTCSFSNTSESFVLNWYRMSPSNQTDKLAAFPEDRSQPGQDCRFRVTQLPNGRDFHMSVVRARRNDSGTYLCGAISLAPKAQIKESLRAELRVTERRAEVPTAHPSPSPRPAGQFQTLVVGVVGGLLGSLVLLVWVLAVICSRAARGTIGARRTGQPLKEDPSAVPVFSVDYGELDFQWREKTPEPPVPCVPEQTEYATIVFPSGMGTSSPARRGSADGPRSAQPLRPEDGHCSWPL
In words: Jurkat-PD-1 Cell Binding High-Content Screening Assay (CBA); Jurkat hPD1-PDL1 assay. As to conditions: Jurkat cell line over-expressing human PD-1; PE-labeled PD-L1-Ig 20 nM final; compound incubated 2 hours at 37° C.; read-out: Jurkat HPD1-PDL1 IC50. The method in brief: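 Binding of phycoerythrin-conjugated PD-L1-Ig (20 nM final) to PD-1-overexpressing Jurkat cells was read by high-content imaging. Cells in DMEM/10% FCS were exposed to compound for 2 hours at 37° C before labeled ligand was added.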
`CC(C)C[C@@H]1NC(=O)C(CCCNC(=N)N)NC(=O)[C@H](Cc2ccccc2)N(C)C(=O)[C@H](C)N(C)C(=O)[C@H](CCCNC(=N)N)NC(=O)[C@H](Cc2ccc(-c3ccccc3)cc2)NC(=O)[C@H](C(C)C)NC(=O)[C@H](Cc2c[nH]c3ccccc23)NC(=O)[C@H](CC(=O)O)NC(=O)[C@H](Cc2ccc(C(=O)O)cc2)NC(=O)[C@H](Cc2ccccc2)NC(=O)CSC[C@@H](C(=O)NCC(N)=O)NC(=O)[C@H](CO)NC(=O)[C@H](C(C)C)NC1=O` (stereo partly drawn) [Example 1222] ({CH2CO}-F[Phe(4-COOH)]DWV[Bip]R[NMeA][NMeF][ξR]LVSCG-NH2; thioether N-14): the IC50 was 60 nM.

Turning to `CC(C)C[C@@H]1NC(=O)C(CCCNC(=N)N)NC(=O)[C@H](Cc2ccccc2)N(C)C(=O)[C@H](CCC(=O)O)NC(=O)[C@H](CCCNC(=N)N)NC(=O)[C@H](Cc2ccc(-c3ccccc3)cc2)NC(=O)[C@H](C(C)C)NC(=O)[C@H](Cc2c[nH]c3ccccc23)NC(=O)[C@H](CC(=O)O)NC(=O)[C@H](Cc2ccc(O)cc2)NC(=O)[C@H](Cc2ccccc2)NC(=O)CSC[C@@H](C(=O)NCC(N)=O)NC(=O)[C@H](CO)NC(=O)[C@H](C(C)C)NC1=O` (stereo partly drawn) [Example 1223] ({CH2CO}-FYDWV[Bip]RE[NMeF][ξR]LVSCG-NH2; thioether N-14), the IC50 worked out at 990 nM.

`CC(C)C[C@@H]1NC(=O)[C@H](CC(N)=O)NC(=O)CN(C)C(=O)[C@H](C)N(C)C(=O)[C@H](C(C)C)NC(=O)[C@H](Cc2ccc(-c3ccccc3)cc2)NC(=O)[C@H](Cc2ccc(O)cc2)NC(=O)[C@H](Cc2c[nH]c3ccccc23)NC(=O)[C@H](CC(=O)O)NC(=O)[C@H](Cc2ccc(O)cc2)NC(=O)[C@H](Cc2ccccc2)NC(=O)CSC[C@@H](C(=O)NCC(N)=O)NC(=O)[C@H](CO)NC(=O)[C@H](C(C)C)NC1=O` [Example 1224] ({CH2CO}-FYDWY[Bip]V[NMeA][Sar]NLVSCG-NH2; thioether N-14): the IC50 is 160 nM.

In the case of `CC(C)C[C@@H]1NC(=O)[C@H](Cc2c[nH]c3ccccc23)NC(=O)[C@H](CC(=O)O)NC(=O)[C@H](Cc2ccc(O)cc2)NC(=O)[C@H](Cc2ccccc2)NC(=O)CSC[C@@H](C(=O)NCC(N)=O)NC(=O)[C@H](CO)NC(=O)[C@H](C(C)C)NC(=O)[C@H](CC(C)C)NC(=O)[C@H](CO)NC(=O)CN(C)C(=O)[C@H](C)N(C)C(=O)[C@H](C(C)C)NC(=O)[C@H](Cc2ccc(-c3ccccc3)cc2)NC1=O` [Example 1225] ({CH2CO}-FYDWL[Bip]V[NMeA][Sar]SLVSCG-NH2; thioether N-14), the IC50 worked out at 960 nM.

In the case of `CC(C)C[C@@H]1NC(=O)[C@H](Cc2c[nH]c3ccccc23)NC(=O)[C@H](CC(=O)O)NC(=O)[C@H](Cc2ccc(O)cc2)NC(=O)[C@H](Cc2ccccc2)NC(=O)CSC[C@@H](C(=O)NCC(N)=O)NC(=O)[C@H](CCCNC(=N)N)NC(=O)[C@H](C(C)C)NC(=O)[C@H](CC(C)C)NC(=O)[C@H](CC(N)=O)NC(=O)CN(C)C(=O)[C@H](C)N(C)C(=O)[C@H](C(C)C)NC(=O)[C@H](Cc2ccc(-c3ccccc3)cc2)NC1=O` [Example 1226] ({CH2CO}-FYDWL[Bip]V[NMeA][Sar]NLVRCG-NH2; thioether N-14), the IC50 is 890 nM.

`CCCC[C@@H]1NC(=O)[C@H](C(C)C)NC(=O)[C@H](Cc2ccccc2)N(C)C(=O)[C@H](CC(=O)O)NC(=O)[C@H](CCCNC(=N)N)NC(=O)[C@H](Cc2ccc(-c3ccccc3)cc2)NC(=O)[C@H](C(C)C)NC(=O)[C@H](Cc2c[nH]c3ccccc23)NC(=O)[C@H](CC(=O)O)NC(=O)[C@H](Cc2ccc(O)cc2)NC(=O)[C@H](Cc2ccccc2)NC(=O)CSC[C@@H](C(=O)NCC(N)=O)NC(=O)[C@H](CO)NC(=O)[C@H](C(C)C)NC1=O` [Example 1227] ({CH2CO}-FYDWV[Bip]RD[NMeF]V[Nle]VSCG-NH2; thioether N-14): the IC50 came out at 650 nM.

For the origin of these results see patent publication US20240360178A1, “MACROCYCLIC IMMUNOMODULATORS” (Bristol-Myers Squibb Company, priority 2021, published 2024).
